Test results: publication PMC5905968, “Evaluation of the fusion inhibitor P3 peptide as a potential microbicide to prevent HIV transmission in women” (PLoS ONE, 2018)

Experiments:
HIV-1 isolate 93AOHDC250 = assay: Single-round viral infectivity assay, luciferase, TZM-bl reporter cells, after exposure of P3 to fluids, temperature, pH or H2O2
Protocol: The antiviral activity of P3 in the presence of SP and VFS was determined with a single-round viral infectivity assay using TZM-bl reporter cells, as previously described. Briefly, TZM-bl cells were plated (1x10^4 cells/well) in a 96-plate and incubated overnight at 37°C with 5% CO2. […] The same procedure was done with VFS and with SP+VFS. Cells were then infected with 200 TCID50 (in 100 μl) of HIV-1 isolate 93AOHDC250 and incubated for 48h before measuring the luciferase activity with the Pierce Firefly Luc One-Step Glow Assay Kit (ThermoFisher Scientific, Rockford, USA) according to the manufacturer’s instructions. At least two independent experiments, each in triplicate, were performed for each antiviral activity analysis. For these experiments, the positive control was made of cells plus virus, the negative control was made of cells plus complete growth medium, compound controls were made of cells plus P3 alone or P3 in SP, VFS or SP+VPS, and the biological fluids control were made of cells plus SP, VFS or SP+VFS.
The long-term stability of P3 was evaluated in the presence of SP [0.5% or 1% (v/v)] or VFS at 37°C for a period of 24h, 48h and 1 week before performing the assay, as described above. In all cases, P3 was considered stable in the presence of biologic fluids if its antiviral activity was unaffected by SP, VFS and SP+VFS. In addition, peptide concentration was determined after exposure to the above conditions by mass spectrometry as described below.
The stability and antiviral activity of P3 were evaluated at different conditions of temperature, pH and oxidation. […] The antiviral activity of each peptide solution was then evaluated with a single-round viral infectivity assay using TZM-bl reporter cells and HIV-1 isolate 93AOHDC250, as described above.
The effect of pH on P3 was evaluated at pH ranging from 4 to 8. Briefly, IC50 peptide solutions were prepared in GM and the pH was adjusted using HCl (1M) or NaOH (1M). Each solution was then incubated at 37°C for 2, 8 and 24 hours and their antiviral activity was determined in a single-round viral infectivity assay using a luciferase reporter gene assay in TZM-bl cells as described above.
To test for oxidation by H2O2, P3 solutions at concentrations corresponding to the IC50 and IC90 were treated with H2O2 at biologic relevant concentrations (1.2μM and 5μM). The antiviral activity of the different solutions was determined in a single-round viral infectivity assay using a luciferase reporter gene assay in TZM-bl cells, as described above.
Controls for these experiments were the following: positive controls (cells plus virus), negative controls (cells plus complete growth medium); pH compound controls (cells plus P3 in different pH growth medium); H2O2 compound controls (cells plus P3 in H2O2, 1.2μM or 5μM); cell controls were also performed under the same incubation conditions. H2O2 and pH cytotoxicity were assessed in TZM-bl cells using alamarBlue assay. In all cases, P3 was considered stable when its antiviral activity was unaffected under the different conditions tested.

spermatozoa = assay: Spermicidal activity: sperm motility (CASA) and viability (Eosin Y); format: cell-based, human; conditions: 114 μM P3, 37°C, 0, 30, 60, 120 and 240 min, versus control without P3; donors n = 3
Protocol: Sperm was obtained from normal donors (n = 3) after signing a written informed consent. […] Spermatozoa viability was evaluated by dye exclusion method using a solution of Eosin Y (5mg/mL). Two hundred spermatozoa were counted with a phase-contrast microscope (Olympus, Modell BH-2), differentiating the live (unstained) spermatozoa from the dead (stained) cells. Sperm motility was evaluated in a Makler chamber using a computer-aided sperm analysis system (CASA, Hamilton Thorne Research, MA, USA). At least five microscopic fields were assessed in a systematic way to classify 200 spermatozoa motility. Each spermatozoon is graded according to cell velocity: progressive motility (i.e.,>5 μm/s), non-progressive motility (<5 μm/s) and immotility.

[1] = LC-MS/MS determination of P3 after exposure to seminal plasma or vaginal fluid simulant; format: in vitro ADME, human; conditions: triplicates; for P3 level: 37°C, LC-MS/MS, below limit of quantification (2.5 ppm)
Protocol: Individual standard solutions (0.25–250 ppm) of P3 were prepared in acetonitrile (99.9% LC–MS) (J.T.Baker, Deventer, the Netherlands) in the presence of SP (0.5 or 1.0%), VFS or growth medium (GM) and analyzed after 24h, 48h and 1 week. In order to precipitate the proteins in the biological fluids, 1 ml of acetonitrile (1:1) was added to 1 ml of sample and samples were centrifuged at 13,000 rpm for 10 min and filtered ([…] PVDF membrane; Chromafil®Xtra from Macherey-Nagel®) just before analysis, All samples were analyzed as triplicates.
The LC system was a Waters® Alliance 2695 (Waters®) equipped with a quaternary pump, solvent degasser, auto sampler and column oven, coupled to a Photodiode Array Detector Waters 996 PDA (Waters®) scanning from 210 to 600 nm. The separation was performed on a reversed phase column LiChrospher® 100 RP-18 (10 x 4.0mm; Merck®, Germany) operating at 35 °C, using an injection volume of 10 μl. The mobile phase consisted of water [Ultra-pure water (18.2MΩ.cm) from a Millipore-Direct Q3 UV system (Millipore, USA)] with TFA 0.1% (v/v) (98% p.a.; Merck®, Germany) (A) and acetonitrile with TFA 0.1% (v/v) (B) at a flow rate of 0.30 ml/min. The following gradient was used: 70% of A as initial conditions, 70% A to 30% A for 7 min. A cleaning step was performed using 100% of acetonitrile for 1 min and finally the column was re-equilibrated with 70% of eluent A for 5 min.
A triple quadrupole mass spectrometer MicroMass® Quattro micro (Micromass®, Waters®) with an electrospray ionization source (ESI) was coupled to the LC system, described above. The ion source conditions were optimized using a standard solution directly injected in the ion source: temperature 120°C, capillary voltage 3.0 kV and cone voltage 50 V. The compound was ionized in positive ion mode and the spectra, in Full Scan, were recorded in the range m/z 100–1700. All analyses were performed in multiple reactions monitoring (MRM) mode in order to achieve a high selectivity and sensitivity. […]

CC[C@H](C)[C@H](NC(=O)[C@H](CC(N)=O)NC(=O)[C@H](C)NC(=O)[C@H](CCC(=O)O)NC(=O)[C@H](CC(C)C)NC(=O)[C@H](Cc1ccc(O)cc1)NC(=O)[C@H](CCCNC(=N)N)NC(=O)[C@@H](NC(=O)[C@H](CCC(N)=O)NC(=O)[C@H](CCC(N)=O)NC(=O)[C@H](CCC(=O)O)NC(=O)[C@H](Cc1c[nH]c2ccccc12)NC(=O)[C@H](CCC(=O)O)NC(=O)[C@H](CCC(N)=O)NC(=O)[C@H](Cc1c[nH]c2ccccc12)NC(C)=O)C(C)C)C(=O)N[C@@H](CO)C(=O)N[C@@H](CCC(N)=O)C(=O)N[C@@H](CCCNC(=N)N)C(=O)N[C@@H](CC(C)C)C(=O)N[C@@H](CCC(=O)O)C(=O)N[C@@H](CCC(N)=O)C(=O)N[C@@H](C)C(=O)N[C@@H](CCC(N)=O)C(=O)N[C@H](C(=O)N[C@@H](CCC(N)=O)C(=O)N[C@@H](CCC(N)=O)C(=O)N[C@@H](CCC(=O)O)C(=O)N[C@@H](CCCCN)C(=O)N[C@@H](CC(N)=O)C(=O)N[C@@H](CCSC)C(=O)N[C@@H](Cc1ccc(O)cc1)C(=O)N[C@@H](CCC(=O)O)C(=O)N[C@@H](CC(C)C)C(=O)N[C@@H](CCC(N)=O)C(N)=O)[C@@H](C)CC [P3]
antiviral activity in the presence of SP 1% (HIV-1 isolate 93AOHDC250; P3 366.4 nM, seminal plasma 1% (v/v), 37°C, 1 week): significant decrease of antiviral activity
antiviral activity in the presence of human fluids (HIV-1 isolate 93AOHDC250; P3 366.4 nM, SP 0.5% or 1% (v/v), VFS, SP+VFS, 37°C, up to 1 week of contact, at least two experiments in triplicate): unaffected
time of full antiviral activity in the presence of human biological fluids (HIV-1 isolate 93AOHDC250; P3 366.4 nM, SP 0.5% or 1%, VFS, 37°C): at least 48 h
mean viral inhibition (HIV-1 isolate 93AOHDC250; P3 at IC90 (366.4 nM) in growth medium, incubated 1 week at 25°C before assay): 99%
mean viral inhibition (HIV-1 isolate 93AOHDC250; P3 at IC90 (366.4 nM) in growth medium, incubated 1 week at 37°C before assay): 99%
mean viral inhibition (HIV-1 isolate 93AOHDC250; P3 at IC90 (366.4 nM) in growth medium, incubated 1 week at 65°C before assay): 100%
mean viral inhibition (HIV-1 isolate 93AOHDC250; control: P3 at IC90 (366.4 nM), antiviral activity determined after 48h at 37°C): 99%
spermatozoa motility (spermatozoa): No significant changes
spermatozoa vitality (spermatozoa): No significant changes
P3 level ([1]; after 48h in 1% human seminal plasma): < 2.5 µg/mL
P3 level ([1]; after one week in 0.5% human seminal plasma): < 2.5 µg/mL
detection of P3 in the presence of VFS ([1]; vaginal fluid simulant pH 4.2, LC-MS/MS (MRM)): readily detectable
